Where two headings read alike, the source gives them in different places.
Test: Single dose clinical study: plasma Compound A pharmacokinetics
Format: in vivo, human
Conditions: human, plasma, po, plasma
Method: This was a single center, single dose, randomized, double blind, placebo controlled study in healthy subjects. It consisted of 4 parts: Parts A, B, C, and D. Each of the four study parts had 2 phases: Prerandomization Phase and Randomization Phase. The Prerandomization Phase lasted up to 30 days and consisted of a Screening Period and a Baseline Period, during which each subject's study eligibility was determined and baseline assessments were performed.
In Part A, there were 8 sequential cohorts of healthy adult subjects (18-50 years of age). Subjects were randomly assigned to Compound A or placebo in a ratio of 6:2, respectively. Subjects in the Compound A cohorts were treated with single ascending doses of 10, 25, 50, 100, 200, 400, 800, or 1200 mg.
In Part B, there were 4 cohorts of healthy adult subjects (18-50 years of age). There were 8 subjects in Cohort 1, with 6 subjects randomly assigned to receive single doses of Compound A (400 mg) and 2 subjects randomly assigned to receive placebo. There were 7 subjects in Cohort 2 and Cohort 3, each with 6 subjects randomly assigned to receive single doses of Compound A (100 and 200 mg, respectively) and 1 subject randomly assigned to receive placebo. The dose of 100 mg selected in Cohort 2 was based on preliminary analysis of Cohort 1 data; this dose was predicted from PK/PD modeling to achieve a sustained CSF cGMP increase from baseline of approximately 200% when administered to steady state, and thereby provided a potentially therapeutic dose for further evaluation in future studies. There were 7 subjects in Cohort 4, with 6 subjects randomly assigned to receive a single dose of Compound A (50 mg [n=3] or 75 mg [n=3]) and 1 subject randomly assigned to receive placebo. The doses for Cohorts 3 and 4 were selected based on PK/PD modeling of the data in Cohorts 1 and 2.
Subjects in Cohort 2 who had received Compound A 100 mg or placebo under fasted conditions (1st Treatment Period) also participated in an evaluation of food effect on the PK of Compound A (2nd Treatment Period). After a washout period of at least 13 days (or 5 half-lives of Compound A, whichever was longer), subjects were admitted to the clinic for baseline assessments (2nd Baseline Period) and then received a single dose of the same treatment (Compound A 100 mg or placebo) after consuming a high fat and high calorie meal over 30 minutes. Blood PK samples were collected at prespecified time points. Safety evaluations were also assessed. CSF was not collected for PD evaluation during the 2nd Treatment Period. A Follow Up Visit occurred on Day 10 of Treatment Period 2.
In Part C, there was 1 cohort of 8 healthy elderly subjects (65 to 85 years of age) randomly assigned to receive a single dose of Compound A 100 mg or placebo in a ratio of 6:2, respectively.
In Part D, 3 cohorts of healthy adult Japanese subjects were randomized in parallel. There were 7 subjects in each cohort and subjects were randomly assigned to receive single doses of Compound A (25, 100, or 400 mg) or placebo in a ratio of 6:1, respectively.
Blood samples for determination of plasma Compound A concentrations were collected from predose to 216 hours postdose. On Day 1, blood PK samples were collected at predose and postdose 0.5 (30 minutes), 1, 1.5, 2, 3, 4, 5, 6, 8, 12, and 18 hours. Thereafter, samples were collected on Day 2 (24 and 36 hours postdose), Day 3 (48 hours postdose), Day 4 (72 hours postdose), Day 5 (96 hours postdose), Day 6 (120 hours postdose), Day 7 (144 hours postdose), and Day 10 (216 hours postdose).
Blood samples for determination of plasma Compound A concentrations were collected from predose to 216 hours postdose. For all cohorts, blood PK samples were collected on Day 1 at predose and postdose at 0.5 (30 minutes), 1, 1.5, 2, 3, 4, 5, 6, 8, 10, 12, and 18 hours. […]

COc1ncc(C)c(-c2ccc3c(c2)[nH]c(=O)c2cnn([C@H]4CCOC4)c23)c1C [Compound A, (S)-7-(2-methoxy-3,5-dimethylpyridin-4-yl)-1-(tetrahydrofuran-3-yl)-1H-pyrazolo[4,3-c]quin olin-4(5H)-one]
Cmax (100 mg, Japanese Subjects (Part D), single oral 100 mg, read-out: Cmax GM (% CV)): 492 ng/mL
Vd/F (100 mg, Japanese Subjects (Part D), single oral 100 mg, read-out: Vz/F GM (% CV)): 240 L
half-life (100 mg, Japanese Subjects (Part D), single oral 100 mg, read-out: t1/2 Mean (SD) (converted)): 23.9 h
Tmax (100 mg, Japanese Subjects (Part D), single oral 100 mg, read-out: tmax Median): 2.52 h
AUC(0-inf) (100 mg, Non-Japanese Subjects (Parts A,B), single oral 100 mg, read-out: AUC(0-inf) GM): 15000 ng·h/mL
Cmax (100 mg, Non-Japanese Subjects (Parts A,B), single oral 100 mg, read-out: Cmax GM (% CV)): 373 ng/mL
Vd/F (100 mg, Non-Japanese Subjects (Parts A,B), single oral 100 mg, read-out: Vz/F GM (% CV)): 268 L
half-life (100 mg, Non-Japanese Subjects (Parts A,B), single oral 100 mg, read-out: t1/2 Mean (SD) (converted)): 28.6 h
Tmax (100 mg, Non-Japanese Subjects (Parts A,B), single oral 100 mg, read-out: tmax Median): 2.99 h
AUC(0-t) (100 mg, Part B 100 mg cohort, single oral 100 mg, Fasted, read-out: AUC (0-24 h) GM (% CV)): 6140 ng·h/mL
AUC(0-t) (100 mg, Part B 100 mg cohort, single oral 100 mg, Fasted, read-out: AUC (0-30 h) GM (% CV)): 7360 ng·h/mL
AUC(0-t) (100 mg, Part B 100 mg cohort, single oral 100 mg, Fasted, read-out: AUC (0-72 h) GM (% CV)): 12200 ng·h/mL
AUC(0-inf) (100 mg, Part B 100 mg cohort, single oral 100 mg, Fasted, read-out: AUC (0-inf) GM (% CV)): 14500 ng·h/mL
AUC(0-t) (100 mg, Part B 100 mg cohort, single oral 100 mg, Fasted, read-out: AUC (0-t) GM (% CV)): 14400 ng·h/mL
Cmax (100 mg, Part B 100 mg cohort, single oral 100 mg, Fasted, read-out: Cmax GM (%CV)): 371 ng/mL
Vd/F (100 mg, Part B 100 mg cohort, single oral 100 mg, Fasted, read-out: Vz/F GM (% CV)): 252 L
half-life (100 mg, Part B 100 mg cohort, single oral 100 mg, Fasted, read-out: t1/2 Mean (SD) (converted)): 25.7 h
Tmax (100 mg, Part B 100 mg cohort, single oral 100 mg, Fasted, read-out: tmax Median (Min, Max)): 2.99 h
AUC(0-t) (100 mg, Part B 100 mg cohort, single oral 100 mg, Fed (high-fat meal), read-out: AUC (0-24 h) GM (% CV)): 7610 ng·h/mL
AUC(0-t) (100 mg, Part B 100 mg cohort, single oral 100 mg, Fed (high-fat meal), read-out: AUC (0-30 h) GM (% CV)): 8980 ng·h/mL
AUC(0-t) (100 mg, Part B 100 mg cohort, single oral 100 mg, Fed (high-fat meal), read-out: AUC (0-72 h) GM (% CV)): 14500 ng·h/mL
AUC(0-inf) (100 mg, Part B 100 mg cohort, single oral 100 mg, Fed (high-fat meal), read-out: AUC (0-inf) GM (% CV)): 17300 ng·h/mL
AUC(0-t) (100 mg, Part B 100 mg cohort, single oral 100 mg, Fed (high-fat meal), read-out: AUC (0-t) GM (% CV)): 17100 ng·h/mL
Cmax (100 mg, Part B 100 mg cohort, single oral 100 mg, Fed (high-fat meal), read-out: Cmax GM (%CV)): 536 ng/mL
Vd/F (100 mg, Part B 100 mg cohort, single oral 100 mg, Fed (high-fat meal), read-out: Vz/F GM (% CV)): 212 L
half-life (100 mg, Part B 100 mg cohort, single oral 100 mg, Fed (high-fat meal), read-out: t1/2 Mean (SD) (converted)): 26 h
Tmax (100 mg, Part B 100 mg cohort, single oral 100 mg, Fed (high-fat meal), read-out: tmax Median (Min, Max)): 3.49 h
AUC(0-t) (100 mg, healthy adults (Parts A,B), single oral 100 mg, fasted, read-out: AUC(0-24 h) GM): 5730 ng·h/mL
AUC(0-t) (100 mg, healthy adults (Parts A,B), single oral 100 mg, fasted, read-out: AUC(0-30 h) GM): 6890 ng·h/mL
AUC(0-t) (100 mg, healthy adults (Parts A,B), single oral 100 mg, fasted, read-out: AUC(0-72 h) GM): 11900 ng·h/mL
AUC(0-inf) (100 mg, healthy adults (Parts A,B), single oral 100 mg, fasted, read-out: AUC(0-inf) GM): 15000 ng·h/mL
AUC(0-t) (100 mg, healthy adults (Parts A,B), single oral 100 mg, fasted, read-out: AUC(0-t) GM): 14800 ng·h/mL
Cmax (100 mg, healthy adults (Parts A,B), single oral 100 mg, fasted, read-out: Cmax GM): 373 ng/mL
Vd/F (100 mg, healthy adults (Parts A,B), single oral 100 mg, fasted, read-out: Vz/F GM): 268 L
half-life (100 mg, healthy adults (Parts A,B), single oral 100 mg, fasted, read-out: t1/2 Mean (converted)): 28.6 h
Tmax (100 mg, healthy adults (Parts A,B), single oral 100 mg, fasted, read-out: tmax Median): 2.99 h
AUC(0-inf) (100 mg, healthy elderly subjects (Part C), single oral 100 mg, read-out: AUC (0-inf) GM (% CV)): 21300 ng·h/mL
Cmax (100 mg, healthy elderly subjects (Part C), single oral 100 mg, read-out: Cmax GM (% CV)): 543 ng/mL
Vd/F (100 mg, healthy elderly subjects (Part C), single oral 100 mg, read-out: Vz/F GM (% CV)): 253 L
half-life (100 mg, healthy elderly subjects (Part C), single oral 100 mg, read-out: t1/2 Mean (SD) (converted)): 38.1 h
Tmax (100 mg, healthy elderly subjects (Part C), single oral 100 mg, read-out: tmax Median (Min, Max)): 2.6 h
AUC(0-t) (200 mg, healthy adults (Parts A,B), single oral 200 mg, fasted, read-out: AUC(0-24 h) GM): 7800 ng·h/mL
AUC(0-t) (200 mg, healthy adults (Parts A,B), single oral 200 mg, fasted, read-out: AUC(0-30 h) GM): 9440 ng·h/mL
AUC(0-t) (200 mg, healthy adults (Parts A,B), single oral 200 mg, fasted, read-out: AUC(0-72 h) GM): 16800 ng·h/mL
AUC(0-inf) (200 mg, healthy adults (Parts A,B), single oral 200 mg, fasted, read-out: AUC(0-inf) GM): 22400 ng·h/mL
AUC(0-t) (200 mg, healthy adults (Parts A,B), single oral 200 mg, fasted, read-out: AUC(0-t) GM): 22000 ng·h/mL
Cmax (200 mg, healthy adults (Parts A,B), single oral 200 mg, fasted, read-out: Cmax GM): 539 ng/mL
Vd/F (200 mg, healthy adults (Parts A,B), single oral 200 mg, fasted, read-out: Vz/F GM): 384 L
half-life (200 mg, healthy adults (Parts A,B), single oral 200 mg, fasted, read-out: t1/2 Mean (converted)): 30.9 h
Tmax (200 mg, healthy adults (Parts A,B), single oral 200 mg, fasted, read-out: tmax Median): 2 h
AUC(0-inf) (400 mg, Japanese Subjects (Part D), single oral 400 mg, read-out: AUC(0-inf) GM): 46500 ng·h/mL
Cmax (400 mg, Japanese Subjects (Part D), single oral 400 mg, read-out: Cmax GM (% CV)): 1180 ng/mL
Vd/F (400 mg, Japanese Subjects (Part D), single oral 400 mg, read-out: Vz/F GM (% CV)): 364 L
half-life (400 mg, Japanese Subjects (Part D), single oral 400 mg, read-out: t1/2 Mean (SD) (converted)): 30 h
Tmax (400 mg, Japanese Subjects (Part D), single oral 400 mg, read-out: tmax Median): 2.25 h

Source: patent publication US20220378706A1, “PHARMACEUTICAL COMPOSITION COMPRISING PDE9 INHIBITOR” (Eisai R&D Management Co., Ltd., priority 2017, published 2022)
